Data reported in article PMC9096165 (Frontiers in Pharmacology, 2022).
Where two headings read alike, the source gives them in different places.

Legend:
[1] = Pharmacokinetics after single intravenous and oral administration; type: in vivo, male Wistar Han rats
Description: Pharmacokinetics of DF2755A, dissolved in saline solution (NaCl 0.9% w/v), was investigated after single intravenous and oral administrations in male Wistar Han rats. DF2755A was given as a single dose in three animals/group by intravenous (bolus) and oral (by gavage) administrations at a dose of 20 mg/kg. Pharmacokinetic evaluation was carried out on blood samples collected on day 1 at six time points from three animals/group (serial sampling).

Nav1.7 = Nav1.7 (Homo sapiens, UniProt Q15858); assay: Ion channel assay, agonist and antagonist mode; type: biochemical; conditions: up to 100 μM (maximum tested concentration)
Chain of Nav1.7 (Q15858 whole entry): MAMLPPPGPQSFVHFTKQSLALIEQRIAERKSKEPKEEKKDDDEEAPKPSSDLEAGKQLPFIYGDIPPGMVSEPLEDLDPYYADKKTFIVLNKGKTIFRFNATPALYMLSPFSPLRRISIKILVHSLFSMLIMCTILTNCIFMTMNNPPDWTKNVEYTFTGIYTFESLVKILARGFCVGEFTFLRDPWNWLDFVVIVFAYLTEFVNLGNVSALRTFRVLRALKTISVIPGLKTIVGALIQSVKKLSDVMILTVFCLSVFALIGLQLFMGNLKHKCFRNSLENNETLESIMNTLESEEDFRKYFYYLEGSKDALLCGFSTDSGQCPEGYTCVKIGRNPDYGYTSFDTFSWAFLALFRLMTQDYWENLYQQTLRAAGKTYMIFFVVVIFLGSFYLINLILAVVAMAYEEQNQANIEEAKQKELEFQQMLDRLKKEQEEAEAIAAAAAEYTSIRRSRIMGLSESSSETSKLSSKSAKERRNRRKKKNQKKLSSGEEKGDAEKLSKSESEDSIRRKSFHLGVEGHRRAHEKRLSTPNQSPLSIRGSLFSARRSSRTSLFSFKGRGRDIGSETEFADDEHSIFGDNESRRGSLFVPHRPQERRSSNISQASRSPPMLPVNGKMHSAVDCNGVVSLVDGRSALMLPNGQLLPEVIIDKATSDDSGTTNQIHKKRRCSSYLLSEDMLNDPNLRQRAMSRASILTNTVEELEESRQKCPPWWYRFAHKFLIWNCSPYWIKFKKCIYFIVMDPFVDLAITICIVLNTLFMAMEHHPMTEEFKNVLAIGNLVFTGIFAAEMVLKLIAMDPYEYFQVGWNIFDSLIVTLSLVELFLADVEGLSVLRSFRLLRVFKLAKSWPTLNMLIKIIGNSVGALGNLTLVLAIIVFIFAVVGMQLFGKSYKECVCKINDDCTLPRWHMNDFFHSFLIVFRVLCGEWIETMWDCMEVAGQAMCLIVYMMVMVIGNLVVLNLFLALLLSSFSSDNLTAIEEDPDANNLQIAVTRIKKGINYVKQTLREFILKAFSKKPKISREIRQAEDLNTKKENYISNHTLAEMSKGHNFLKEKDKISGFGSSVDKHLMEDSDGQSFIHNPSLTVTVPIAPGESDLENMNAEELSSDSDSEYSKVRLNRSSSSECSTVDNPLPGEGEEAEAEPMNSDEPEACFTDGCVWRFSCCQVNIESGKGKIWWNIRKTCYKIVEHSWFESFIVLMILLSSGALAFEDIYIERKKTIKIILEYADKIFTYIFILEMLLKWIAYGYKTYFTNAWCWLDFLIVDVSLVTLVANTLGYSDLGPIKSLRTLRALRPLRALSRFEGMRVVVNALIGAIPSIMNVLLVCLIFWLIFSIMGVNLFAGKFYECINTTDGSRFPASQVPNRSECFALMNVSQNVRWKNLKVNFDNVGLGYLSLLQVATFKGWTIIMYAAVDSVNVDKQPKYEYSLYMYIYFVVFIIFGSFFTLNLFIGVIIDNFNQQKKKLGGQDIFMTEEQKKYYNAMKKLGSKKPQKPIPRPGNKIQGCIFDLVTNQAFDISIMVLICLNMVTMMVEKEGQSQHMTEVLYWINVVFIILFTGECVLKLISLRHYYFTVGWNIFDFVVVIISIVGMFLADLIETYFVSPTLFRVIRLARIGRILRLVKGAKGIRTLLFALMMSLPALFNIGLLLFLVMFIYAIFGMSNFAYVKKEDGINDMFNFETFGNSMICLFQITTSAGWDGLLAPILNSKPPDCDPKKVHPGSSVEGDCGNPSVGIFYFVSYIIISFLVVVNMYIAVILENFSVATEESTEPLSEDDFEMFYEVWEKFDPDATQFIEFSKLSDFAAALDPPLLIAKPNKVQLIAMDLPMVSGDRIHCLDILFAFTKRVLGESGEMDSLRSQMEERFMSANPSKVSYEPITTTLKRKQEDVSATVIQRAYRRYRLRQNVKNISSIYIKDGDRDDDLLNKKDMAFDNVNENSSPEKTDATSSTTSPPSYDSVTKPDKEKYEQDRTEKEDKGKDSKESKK
Description: (§1) In addition, DF2755A was tested on TRPM8, TRPV1, TRPV4, TRPA1, and Nav1.7 ion channels in agonist and antagonist mode at eight concentrations in quadruplicate (100 μM was the highest tested concentration).

TRPA1 = TRPA1 (Homo sapiens, UniProt O75762); assay: Ion channel assay, agonist and antagonist mode; type: biochemical; conditions: up to 100 μM (maximum tested concentration)
Chain of TRPA1 (O75762 whole entry, species assumed): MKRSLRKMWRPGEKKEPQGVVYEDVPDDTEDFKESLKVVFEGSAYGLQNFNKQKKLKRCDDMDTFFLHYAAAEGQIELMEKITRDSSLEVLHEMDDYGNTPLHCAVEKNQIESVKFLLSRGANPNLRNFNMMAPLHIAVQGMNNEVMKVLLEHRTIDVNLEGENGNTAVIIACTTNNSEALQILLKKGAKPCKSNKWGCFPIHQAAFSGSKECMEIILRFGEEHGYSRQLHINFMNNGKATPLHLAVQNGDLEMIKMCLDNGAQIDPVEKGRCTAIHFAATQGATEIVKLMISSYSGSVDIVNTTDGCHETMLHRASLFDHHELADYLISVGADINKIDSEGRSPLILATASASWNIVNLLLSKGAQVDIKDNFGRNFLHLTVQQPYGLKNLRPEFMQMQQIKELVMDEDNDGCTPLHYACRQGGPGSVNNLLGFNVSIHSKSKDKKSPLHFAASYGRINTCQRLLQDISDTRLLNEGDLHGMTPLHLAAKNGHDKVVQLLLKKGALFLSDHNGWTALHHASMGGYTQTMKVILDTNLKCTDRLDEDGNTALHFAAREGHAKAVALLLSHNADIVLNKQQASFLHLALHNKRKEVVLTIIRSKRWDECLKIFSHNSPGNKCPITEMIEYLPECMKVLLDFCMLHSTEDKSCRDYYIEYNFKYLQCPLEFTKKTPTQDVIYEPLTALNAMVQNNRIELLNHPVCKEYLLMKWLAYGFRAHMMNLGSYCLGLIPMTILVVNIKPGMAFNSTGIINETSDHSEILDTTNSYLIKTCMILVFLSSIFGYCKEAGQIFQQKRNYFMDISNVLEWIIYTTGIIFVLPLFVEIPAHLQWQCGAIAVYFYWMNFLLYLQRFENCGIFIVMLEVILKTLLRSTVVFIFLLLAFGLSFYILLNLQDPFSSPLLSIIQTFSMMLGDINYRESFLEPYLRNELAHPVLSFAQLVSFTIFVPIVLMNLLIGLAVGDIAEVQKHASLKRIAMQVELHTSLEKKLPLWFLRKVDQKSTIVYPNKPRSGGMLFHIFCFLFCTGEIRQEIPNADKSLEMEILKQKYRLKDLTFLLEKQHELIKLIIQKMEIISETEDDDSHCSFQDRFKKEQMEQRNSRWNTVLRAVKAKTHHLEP
Description: as §1

TRPM8 = TRPM8 (Homo sapiens, UniProt Q7Z2W7); assay: Ion channel assay, agonist and antagonist mode; type: biochemical; conditions: up to 100 μM (maximum tested concentration)
Chain of TRPM8 (Q7Z2W7 whole entry, species assumed): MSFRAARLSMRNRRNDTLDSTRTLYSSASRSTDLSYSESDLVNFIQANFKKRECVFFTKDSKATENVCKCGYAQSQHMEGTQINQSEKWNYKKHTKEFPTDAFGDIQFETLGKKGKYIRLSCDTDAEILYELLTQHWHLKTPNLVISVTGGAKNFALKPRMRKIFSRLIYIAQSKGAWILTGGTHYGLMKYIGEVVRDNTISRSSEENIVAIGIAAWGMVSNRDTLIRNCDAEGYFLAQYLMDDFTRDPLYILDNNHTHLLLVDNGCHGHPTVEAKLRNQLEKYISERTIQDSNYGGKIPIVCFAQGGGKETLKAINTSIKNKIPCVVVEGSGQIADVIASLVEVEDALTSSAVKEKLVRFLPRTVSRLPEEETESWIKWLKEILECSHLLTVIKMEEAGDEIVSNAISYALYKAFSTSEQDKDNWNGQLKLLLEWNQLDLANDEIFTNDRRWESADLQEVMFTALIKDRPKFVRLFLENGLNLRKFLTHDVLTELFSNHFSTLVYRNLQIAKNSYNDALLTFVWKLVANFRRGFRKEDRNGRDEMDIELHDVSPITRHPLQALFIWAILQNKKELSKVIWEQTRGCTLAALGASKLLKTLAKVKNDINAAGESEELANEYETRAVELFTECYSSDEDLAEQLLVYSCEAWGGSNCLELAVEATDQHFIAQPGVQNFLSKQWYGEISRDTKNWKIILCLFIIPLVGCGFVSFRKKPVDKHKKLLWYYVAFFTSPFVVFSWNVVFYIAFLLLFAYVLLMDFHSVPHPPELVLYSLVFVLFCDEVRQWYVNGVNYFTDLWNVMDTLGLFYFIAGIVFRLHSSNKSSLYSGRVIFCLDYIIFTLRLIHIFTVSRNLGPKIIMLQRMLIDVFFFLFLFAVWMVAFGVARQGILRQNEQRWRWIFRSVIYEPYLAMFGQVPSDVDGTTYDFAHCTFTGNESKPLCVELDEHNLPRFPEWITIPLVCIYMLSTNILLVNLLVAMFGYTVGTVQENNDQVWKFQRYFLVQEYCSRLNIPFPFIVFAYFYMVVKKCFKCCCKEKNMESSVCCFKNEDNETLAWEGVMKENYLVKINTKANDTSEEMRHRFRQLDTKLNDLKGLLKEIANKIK
Description: as §1

TRPV1 [2] = biological target: TRPV1 (Homo sapiens, UniProt Q8NER1); assay: Ion channel assay, agonist and antagonist mode; type: biochemical; conditions: up to 100 μM (maximum tested concentration)
Chain of TRPV1 (Homo sapiens, UniProt Q8NER1) (Q8NER1 whole entry, species assumed): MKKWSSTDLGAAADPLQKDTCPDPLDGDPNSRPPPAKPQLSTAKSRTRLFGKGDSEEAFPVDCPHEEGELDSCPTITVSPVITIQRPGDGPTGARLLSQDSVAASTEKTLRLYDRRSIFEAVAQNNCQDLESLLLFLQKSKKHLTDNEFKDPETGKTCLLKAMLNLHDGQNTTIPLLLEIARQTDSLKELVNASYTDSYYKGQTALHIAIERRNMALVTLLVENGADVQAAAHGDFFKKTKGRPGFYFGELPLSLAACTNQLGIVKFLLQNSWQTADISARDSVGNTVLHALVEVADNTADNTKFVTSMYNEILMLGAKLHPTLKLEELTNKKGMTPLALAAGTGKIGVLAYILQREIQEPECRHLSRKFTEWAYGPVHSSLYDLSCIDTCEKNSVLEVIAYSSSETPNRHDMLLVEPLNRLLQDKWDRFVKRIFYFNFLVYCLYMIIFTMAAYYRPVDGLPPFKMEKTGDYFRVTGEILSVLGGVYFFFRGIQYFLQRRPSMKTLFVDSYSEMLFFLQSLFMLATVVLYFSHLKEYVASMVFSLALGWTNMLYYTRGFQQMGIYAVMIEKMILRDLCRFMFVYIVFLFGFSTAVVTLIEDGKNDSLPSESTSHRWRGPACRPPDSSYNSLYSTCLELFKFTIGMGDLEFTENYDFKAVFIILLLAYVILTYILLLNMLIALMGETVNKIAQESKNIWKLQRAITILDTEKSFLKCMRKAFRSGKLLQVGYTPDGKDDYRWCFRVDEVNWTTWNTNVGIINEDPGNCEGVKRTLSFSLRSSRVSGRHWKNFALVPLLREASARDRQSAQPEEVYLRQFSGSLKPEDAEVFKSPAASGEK
Description: as §1

TRPV4 = TRPV4 (Homo sapiens, UniProt Q9HBA0); assay: Ion channel assay, agonist and antagonist mode; type: biochemical; conditions: up to 100 μM (maximum tested concentration)
Description: as §1

[3] = Routes and rates of excretion after single oral [14C]DF2755A; type: in vivo; conditions: single oral 20 mg/kg, female SD rats
Description: Prior to administration and for acclimatization, animals (n = 6) were transferred to individual metabolic cages and were left therein for the duration of the study except for a short period during dosing. The metabolic cages were specifically designed for the separate collection of urine and feces. The preparation of dose formulation was performed on the day of experiment. The test item was dissolved in the appropriate volume of saline solution (NaCl, 0.9% w v^−1) to achieve the dose volume of 5 ml kg^−1. The resulting solution was then administered via a gavage fed down the esophagus to enable the formulation to be dispensed directly into the stomach.
Radioactivity was extracted from the selected feces and urine homogenate pools with appropriate solvents based on methodology developed at Quotient (Rushden) Ltd. and analyzed by quantitative radioactivity analysis (QRA).

[4] = Tissue distribution by quantitative whole-body autoradiography; type: in vivo, female SD rats; conditions: at tmax (2 h after dosing), oral 20 mg/kg
Description: Tissue distribution was performed by quantitative whole-body autoradiography (QWBA). At the selected time points (2, 6, 12, 24, 48, 120, and 168 h post-oral administration of the compound), animals (n = 6) were killed using an overdose of carbon dioxide, followed by immediate snap freezing in a hexane/solid carbon dioxide mixture. Each carcass was subjected to WBA using procedures based on the work of [Waddell and Brinkhous (1967)]. Sections were taken at up to six different levels of the rat body to include as many tissues as possible (a minimum of 30). Distribution of radioactivity in the sections was determined and quantified by bioimage analysis.

F11 cells = assay: F11 cell viability (CellTiter AQueous One); type: cell-based; conditions: differentiated F11 cells, 24 h, 0.1 to 5 µM
Description: (§2) For these experiments, cells at 18th passage were used.
[…] Cell viability was determined using the colorimetric method CellTiter AQueous One Solution Cell Proliferation Assay (Promega Corporation, United States), as previously reported ([Brandolini et al., 2017]). The quantity of formed formazan, as a function of viability, was measured at 492 nm using an ELISA plate reader, Infinite F200 (Tecan, Männedorf, Swiss). The results from five independent experiments were expressed as absorbance at 492 nm.

TRPV1 [5] = assay: TRPV1 mRNA expression in F11 cells (RT PCR); type: cell-based; conditions: DF2755A 1 µM + CYP 100 nM
Text: as §2
(§3) Triplicate samples were run for each gene.

TRPV1 [6] = assay: TRPV1 protein level in F11 cells (Western blotting); type: cell-based; conditions: DF2755A 1 µM + CYP 100 nM
Text: as §2, §3
Control and treated F11 cells were collected and lysed in an ice-cold RIPA buffer containing protease and phosphatase inhibitor cocktail (Sigma-Aldrich, United States). The extracted proteins were quantified using BCA assay (Thermo, United States). NuPAGE lithium dodecyl sulfate sample buffer (Cat#NP007, Thermo, United States) and NuPAGE sample reducing agent (Cat#NP0004, Thermo, United States) were added to the samples and then put in the Thermoblock (Eppendorf, United Kingdom) at 75°C for 10 min. Protein lysates (30 μg) were separated on NuPAGE bis–tris glycine gradient precast gel (Cat#NP0321PK2, Invitrogen, United States) and electroblotted on a PVDF membrane (Cat#IPVH00010, Millipore, United States) using a semi-dry system (Thermo, United States). Non-specific binding sites were blocked by blocking solution (Cat#000105, Invitrogen, United States) for 15 min at RT. […] The relative densities of the immunoreactive bands were determined and normalized with respect to actin, using Fiji software. […]

CXCR2 = tested on: CXCR2; design: method as in Lopes et al., 2016; conditions: ref Lopes et al., 2016; cited from earlier work
[7] = intravenous 20 mg kg^−1, male Wistar Han rats

Compound: C[C@H](C(=O)[O-])c1ccc(Nc2nc(C(F)(F)F)cs2)cc1.[Na+] [DF2755A, sodium (2S)-2-(4-{[4-(trifluoromethyl)-1,3-thiazol-2-yl]amino}phenyl)propanoate]
- overall systemic exposure (AUC0-t (last)) [1, 7]: 578,017 ng/mlh
- systemic clearance [1, 7]: slow
- half-life ([1]; male, Wistar Han, rat, plasma, 20 mg/kg, route not stated, read-out: half-life (converted)): 408 min
- bioavailability ([1]; rat, plasma, po, 20 mg/kg, male Wistar Han rats, read-out: oral absolute bioavailability (F%)): 86.2%
- C0 ([1]; rat, plasma, intravenous 20 mg kg^−1, male Wistar Han rats, read-out: Plasma concentration at time zero (C0)): 117 µg/mL
- half-life ([1]; rat, plasma, intravenous 20 mg kg^−1, male Wistar Han rats, read-out: t1/2,z (converted)): 486 min
- Vd ([1]; rat, plasma, intravenous 20 mg kg^−1, male Wistar Han rats, read-out: volume of distribution at steady state): < 1 L/kg
- Tmax ([1]; rat, plasma, oral 20 mg/kg, male Wistar Han rats): 2 h
- Cmax ([1]; rat, plasma, oral 20 mg/kg, male Wistar Han rats, read-out: maximum plasma concentration (Cmax)): 43500 ng/mL
- AUC(0-t) ([1]; rat, plasma, oral 20 mg/kg, male Wistar Han rats, read-out: overall systemic exposure (AUC0-t (last))): 498 µg·h/mL
- distribution volume ([1]; route not stated): 0.35 L/kg
- activity in agonism and antagonism mode (Nav1.7): no activity
- activity in agonism and antagonism mode (TRPA1): no activity
- activity in agonism and antagonism mode (TRPM8): no activity
- activity in agonism and antagonism mode (TRPV1 [2]): no activity
- activity in agonism and antagonism mode (TRPV4): no activity
- overall mean recovery of radioactivity ([3]; 0 to 48 h post-dose): 97.67 % of dose
- Mean recovery of radioactivity, feces ([3]; 0–168 h): 77.10 % dose
- Mean recovery of radioactivity, total ([3]; 0–168 h): 102.06 % dose
- Mean recovery of radioactivity, urine ([3]; 0–168 h): 24.13 % dose
- radioactivity concentration, blood content into the heart [4]: 38.3 μg equivalents DF2755A g^−1 of tissue
- radioactivity concentration, kidney as a whole [4]: 29.6 μg equivalents DF2755 A/g^−1 of tissue
- radioactivity concentration, kidney cortex [4]: 33.2 μg equivalents DF2755A g^−1 of tissue
- radioactivity concentration, liver [4]: 41.7 μg equivalents DF2755A g^−1 of tissue
- radioactivity concentration, small intestine contents [4]: 180 μg equivalents DF2755A g^−1 of tissue
- radioactivity concentration, stomach contents [4]: 51.8 μg equivalents DF2755A g^−1 of tissue
- radioactivity concentration, urinary bladder contents [4]: 63.0 μg DF2755A g^−1 of tissue
- radioactivity concentration, urinary bladder wall [4]: 24.3 μg equivalents DF2755A g^−1 of tissue
- share of the administered dose in urinary bladder contents [4]: 8%
- share of the administered dose in urinary bladder wall [4]: 3%
- neuronal cell viability (F11 cells): did not modulate neuronal cell viability
- TRPV1 mRNA expression in CYP-exposed cells (TRPV1 [5]): restored TRPV1 mRNA expression to control values
- TRPV1 protein level in CYP-exposed cells (TRPV1 [6]): restored to control expression
- IC50 (CXCR2): 2.1 nM
